Legend:
[1] = molecular target: T1, CFTR in F508del/F508del primary CF hBE cells (Homo sapiens, UniProt P13569, DEL508-508); experiment: Ussing chamber electrophysiology assay of CFTR potentiation in F508del/F508del CF bronchial epithelial cells (27° C.); format: cell-based
T1 construct: Primary cystic fibrosis human bronchial epithelial (CF hBE) cells were expanded and cultured; endogenous in cells; host or cells: primary CF human bronchial epithelial cells, genotype F508del/F508del
Summary of the method: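 Well-differentiated primary CF hBE cells (>30 days air/liquid interface) in Ussing chambers, HEPES saline both sides, voltage clamped to zero. Amiloride 30 uM, forskolin 10 uM, four rising compound concentrations, then CFTRinh-172 20 uM added at 20-25 min intervals. Short-circuit current scaled to DMSO (0%) and a positive control potentiator maximum (100%).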

[2] = molecular target: T2, recombinant F508del V470 CFTR in Fischer rat thyroid (FRT) cells (Homo sapiens, UniProt P13569, DEL508-508); experiment: FRT ion flux assay of F508del CFTR potentiation; format: cell-based; conditions: FRT cells expressing F508del V470 CFTR, forskolin 20 uM, 27° C. pre-incubation
T2 construct: expressed in transfected cells
T2 sequence (P13569 with tags, fused parts or gaps DEL508-508): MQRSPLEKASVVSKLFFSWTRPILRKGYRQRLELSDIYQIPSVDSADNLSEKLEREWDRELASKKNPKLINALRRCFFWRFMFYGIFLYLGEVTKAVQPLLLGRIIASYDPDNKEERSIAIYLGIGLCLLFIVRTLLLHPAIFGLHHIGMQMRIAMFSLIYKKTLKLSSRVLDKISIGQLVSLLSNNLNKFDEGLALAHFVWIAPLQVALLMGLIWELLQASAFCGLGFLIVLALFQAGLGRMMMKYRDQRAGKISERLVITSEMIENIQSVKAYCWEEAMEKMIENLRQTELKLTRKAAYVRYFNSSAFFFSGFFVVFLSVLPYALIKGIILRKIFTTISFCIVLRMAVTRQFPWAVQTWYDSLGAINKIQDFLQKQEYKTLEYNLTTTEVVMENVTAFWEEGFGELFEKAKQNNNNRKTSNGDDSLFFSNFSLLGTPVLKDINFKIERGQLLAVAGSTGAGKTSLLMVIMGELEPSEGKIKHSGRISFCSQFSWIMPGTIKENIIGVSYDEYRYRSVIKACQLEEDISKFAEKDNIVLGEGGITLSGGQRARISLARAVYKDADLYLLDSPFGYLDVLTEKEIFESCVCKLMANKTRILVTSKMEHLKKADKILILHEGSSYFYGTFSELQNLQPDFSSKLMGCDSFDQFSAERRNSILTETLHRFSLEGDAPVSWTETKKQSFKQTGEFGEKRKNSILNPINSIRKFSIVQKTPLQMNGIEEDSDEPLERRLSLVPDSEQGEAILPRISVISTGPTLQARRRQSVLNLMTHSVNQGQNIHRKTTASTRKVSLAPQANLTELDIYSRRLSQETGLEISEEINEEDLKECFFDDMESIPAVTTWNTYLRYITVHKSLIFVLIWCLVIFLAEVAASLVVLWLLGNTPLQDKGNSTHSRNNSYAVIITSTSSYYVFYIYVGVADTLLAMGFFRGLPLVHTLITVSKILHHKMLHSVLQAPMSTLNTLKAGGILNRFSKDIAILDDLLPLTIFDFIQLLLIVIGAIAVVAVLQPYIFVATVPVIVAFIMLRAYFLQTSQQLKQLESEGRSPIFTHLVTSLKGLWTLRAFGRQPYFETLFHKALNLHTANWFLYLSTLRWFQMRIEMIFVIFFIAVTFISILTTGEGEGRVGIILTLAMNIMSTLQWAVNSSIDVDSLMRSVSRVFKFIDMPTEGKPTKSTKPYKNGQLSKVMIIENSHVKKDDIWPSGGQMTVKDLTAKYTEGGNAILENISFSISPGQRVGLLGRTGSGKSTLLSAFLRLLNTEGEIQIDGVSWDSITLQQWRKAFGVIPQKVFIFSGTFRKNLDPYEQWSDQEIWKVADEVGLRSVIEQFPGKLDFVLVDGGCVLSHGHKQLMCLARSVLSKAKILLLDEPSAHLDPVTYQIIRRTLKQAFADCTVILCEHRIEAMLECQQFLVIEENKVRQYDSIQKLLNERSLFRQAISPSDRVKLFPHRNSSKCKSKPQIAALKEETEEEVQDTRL
Summary of the method: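 FRT cells co-expressing F508del V470 CFTR and halide-sensitive YFP, temperature-corrected at 27° C for 16-24 h, then treated 30 min with compound plus 20 uM forskolin. Iodide addition quenches YFP, read after ~21 s; ratio scaled to DMSO (0%) and positive control potentiator (100%).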

T1 sequence (P13569 with tags, fused parts or gaps DEL508-508): as above

| SMILES | EC50 [1] | EC50 [2] |
| --- | --- | --- |
| Nc1ncnc2c1c(-c1ccc(OC(F)F)cc1)cn2Cc1cn(-c2ccccc2F)nn1 [Example 83, 5-[4-(Difluoromethoxy)phenyl]-7-{[1-(2-fluorophenyl)-1H-1,2,3-triazol-4-yl]methyl}-7H-pyrrolo[2,3-d]pyrimidin-4-amine] | 39.8 nM | 71.9 nM |
| CCC(c1cn(-c2ccccc2F)nn1)n1cc(-c2ccc(OC(F)F)nc2)c2c(N)ncnc21 (single isomer, unassigned; enantiomer 2) [Example 142, (+) 5-[6-(Difluoromethoxy)pyridin-3-yl]-7-{1-[1-(2-fluorophenyl)-1H-1,2,3-triazol-4-yl]propyl}-7H-pyrrolo[2,3-d]pyrimidin-4-amine, enantiomer 2] | 4.58 nM | 5.02 nM |
| CCC(c1cn(-c2ccccc2)nn1)n1cc(-c2cncnc2OC)c2c(N)ncnc21 (single isomer, unassigned; enantiomer 2) [Example 128, (+) 5-(4-Methoxypyrimidin-5-yl)-7-[1-(1-phenyl-1H-1,2,3-tnazol-4-yl)propyl]-7H-pyrrolo[2,3-d]pyrimidin-4-amine, enantiomer 2] | 42.6 nM | 19.1 nM |
| CC(c1cnc(-c2ccccc2F)[nH]1)n1cc(-c2ccc3[nH]ncc3c2)c2c(N)ncnc21 (centres unmarked) [Example 66, 7-{1-[2-(2-Fluorophenyl)-1H-imidazol-5-yl]ethyl}-5-(1H-indazol-5-yl)-7H-pyrrolo[2,3-d]pyrimidin-4-amine] | 1320 nM | 573 nM |
| CC(c1cn(-c2ccccc2F)nn1)n1cc(-c2ccccc2)c2c(N)ncnc21 (centres unmarked) [Example 94, 7-{1-[1-(2-Fluorophenyl)-1H-1,2,3-triazol-4-yl]ethyl}-5-phenyl-7H-pyrrolo[2,3-d]pyrimidin-4-amine] | 140 nM | 361 nM |
| CCC(c1cn(-c2ccc(F)c(F)c2)nn1)n1cc(-c2cnc(C(F)(F)F)nc2)c2c(N)ncnc21 (single isomer, unassigned; enantiomer 1) [Example 153, 7-{1-[1-(3,4-Difluorophenyl)-1H-1,2,3-triazol-4-yl]propyl}-5-[2-(trifluoromethyl)pyrimidin-5-yl]-7H-pyrrolo[2,3-d]pyrimidin-4-amine, enantiomer 1] | 19.8 nM | 59 nM |
| CCC(c1cn(-c2cccc(F)c2F)nn1)n1c(C#N)c(-c2cnc(C(F)(F)F)nc2)c2c(N)ncnc21 (single isomer, unassigned) [Example 18, 4-amino-7-{1-[1-(2,3-difluorophenyl)-1H-1,2,3-triazol-4-yl]propyl}-5-[2-(trifluoromethyl)pyrimidin-5-yl]-7H-pyrrolo[2,3-d] pyrimidine-6-carbonitrile] | 12.5 nM | 10.8 nM |
| CCC(c1cn(-c2cccc(F)c2F)nn1)n1c(C#N)c(-c2cnc(C(F)(F)F)nc2)c2c(N)ncnc21 (single isomer, unassigned) [Example 19, 4-amino-7-{1-[1-(2,3-difluorophenyl)-1H-1,2,3-triazol-4-yl]propyl}-5-[2-(trifluoromethyl)pyrimidin-5-yl]-7H-pyrrolo[2,3-d] pyrimidine-6-carbonitrile] | 34.7 nM | 69.6 nM |
| CC(c1cn(-c2ccccc2F)nn1)n1cc(-c2cc[nH]n2)c2c(N)ncnc21 (single isomer, unassigned; enantiomer 1) [Example 121, 7-{1-[1-(2-Fluorophenyl)-1H-1,2,3-triazol-4-yl]ethyl}-5-(1H-pyrazol-3-yl)-7H-pyrrolo[2,3-d]pyrimidin-4-amine, enantiomer 1] | 89.2 nM | 30 nM |
| CSc1ccc(-c2cn(C(C)c3cn(-c4ccccc4F)nn3)c3ncnc(N)c23)cc1 (centres unmarked) [Example 88, 7-{1-[1-(2-Fluorophenyl)-1H-1,2,3-triazol-4-yl]ethyl}-5-[4-(methylsulfanyl)phenyl]-7H-pyrrolo[2,3-d]pyrimidin-4-amine] | 38.2 nM | 41.3 nM |
| CCC(c1cn(-c2ccccc2F)nn1)n1cc(-c2nccnc2OC)c2c(N)ncnc21 (single isomer, unassigned; enantiomer 1) [Example 135, (−) 7-{1-[1-(2-Fluorophenyl)-1H-1,2,3-triazol-4-yl]propyl}-5-(3-methoxypyrazin-2-yl)-7H-pyrrolo[2,3-d]pyrimidin-4-amine, enantiomer 1] | 65.2 nM | 203 nM |
| CC(c1cn(-c2ccccc2F)nn1)n1cc(-c2ccc(Cl)cc2)c2c(N)ncnc21 (centres unmarked) [Example 58, 5-(4-Chlorophenyl)-7-{1-[1-(2-fluorophenyl)-1H-1,2,3-triazol-4-yl]ethyl}-7H-pyrrolo[2,3-d]pyrimidin-4-amine] | 28.9 nM | 232 nM |
| COc1ncccc1-c1cn(C(C)c2cn(-c3ccccc3F)nn2)c2ncnc(N)c12 (single isomer, unassigned) [Example 113, 7-{1-[1-(2-Fluorophenyl)-1H-1,2,3-triazol-4-yl]ethyl}-5-(2-methoxypyridin-3-yl)-7H-pyrrolo[2,3-d]pyrimidin-4-amine] | 818 nM | 826 nM |
| CC(c1cn(-c2ccccc2F)nn1)n1cc(-c2ccc(OC3CC3)cc2)c2c(N)ncnc21 (single isomer, unassigned; enantiomer 1) [Example 117, (+) 5-[4-(Cyclopropyloxy)phenyl]-7-{1-[1-(2-fluorophenyl)-1H-1,2,3-triazol-4-yl]ethyl}-7H-pyrrolo[2,3-d]pyrimidin-4-amine, enantiomer 1] | 49.3 nM | 58.8 nM |

The next lines start with the values.

| EC50 [1] | EC50 [2] | SMILES |
| --- | --- | --- |
| 24.5 nM | 538 nM | CC(c1cc(-c2ccccc2F)no1)n1cc(-c2ccc(Cl)cc2)c2c(N)ncnc21 (single isomer, unassigned; enantiomer 1) [Example 181, (+)-5-(4-Chlorophenyl)-7-{1-[3-(2-fluorophenyl)-1,2-oxazol-5-yl]ethyl}-7H-pyrrolo[2,3-d]pyrimidin-4-amine, enantiomer 1] |
| 49 nM | 15.6 nM | Nc1ncnc2c1c(-c1cccnc1OC(F)F)cn2Cc1cn(-c2ccccc2F)nn1 [Example 196, 5-[2-(Difluoromethoxy)pyridin-3-yl]-7-{[1-(2-fluorophenyl)-1H-1,2,3-triazol-4-yl]methyl}-7H-pyrrolo[2,3-d]pyrimidin-4-amine] |
| 110 nM | 197 nM | COc1ccccc1-c1cc(C(C)n2cc(-c3ccc(Cl)cc3)c3c(N)ncnc32)on1 (centres unmarked) [Example 260, 5-(4-Chlorophenyl)-7-{1-[3-(2-methoxyphenyl)-1,2-oxazol-5-yl]ethyl}-7H-pyrrolo[2,3-d]pyrimidin-4-amine] |
| 19.5 nM | 112 nM | CCC(c1cn(-c2ccc(F)c(F)c2)nn1)n1cc(-c2cnc(OC)c(F)c2)c2c(N)ncnc21 (single isomer, unassigned; enantiomer 2) [Example 158, 7-{1-[1-(3,4-Difluorophenyl)-1H-1,2,3-triazol-4-yl]propyl}-5-(5-fluoro-6-methoxypyridin-3-yl)-7H-pyrrolo[2,3-d]pyrimidin-4-amine, enantiomer 2] |
| 46.2 nM | 120 nM | CC(c1cn(-c2ccc(F)cc2F)nn1)n1c(C#N)c(-c2ccc(OC3CC3)nc2)c2c(N)ncnc21 (single isomer, unassigned; enantiomer 1) [Example 320, 4-Amino-5-[6-(cyclopropyloxy)pyridin-3-yl]-7-{1-[1-(2,4-difluorophenyl)-1H-1,2,3-triazol-4-yl]ethyl}-7H-pyrrolo[2,3-d]pyrimidine-6-carbonitrile, enantiomer 1] |
| 184 nM | 79.3 nM | COc1ncccc1-c1cn(C(C)c2cn(-c3ccccc3F)nn2)c2ncnc(N)c12 (centres unmarked) [Example 215, 7-{1-[1-(2-Fluorophenyl)-1H-1,2,3-triazol-4-yl]ethyl}-5-(2-methoxypyridin-3-yl)-7H-pyrrolo [2,3-d]pyrimidin-4-amine] |
| 8 nM | 9.89 nM | CCC(c1cnn(-c2ccccc2F)c1)n1cc(-c2cnc(C(F)(F)F)nc2)c2c(N)ncnc21 (single isomer, unassigned; enantiomer 1) [Example 175, 7-{(1-[1-(2-Fluorophenyl)-1H-pyrazol-4-yl]propyl}-5-[2-(trifluoromethyl)pyrimidin-5-yl]-7H-pyrrolo[2,3-d]pyrimidin-4-amine, enantiomer 1] |
| 189 nM | 167 nM | CC(c1cn(-c2ccccc2F)nn1)n1cc(C2CCC2)c2c(N)ncnc21 (single isomer, unassigned; enantiomer 1) [Example 294, 5-Cyclobutyl-7-{1-[1-(2-fluorophenyl)-1H-1,2,3-triazol-4-yl]ethyl}-7H-pyrrolo[2,3-d]pyrimidin-4-amine, enantiomer 1] |
| 25.3 nM | 63.6 nM | COc1ncc(F)cc1-c1cn(Cc2cn(-c3ccccc3F)nn2)c2ncnc(N)c12 [Example 195, 5-(5-Fluoro-2-methoxypyridin-3-yl)-7-{[1-(2-fluorophenyl)-1H-1,2,3-triazol-4-yl]methyl}-7H-pyrrolo[2,3-d]pyrimidin-4-amine] |
| 397 nM | 2990 nM | CNc1ncnc2c1c(-c1ccc(Cl)cc1)cn2C(C)c1cn(-c2ccccc2F)nn1 (centres unmarked) [Example 318, 5-(4-Chlorophenyl)-7-{1-[1-(2-fluorophenyl)-1H-1,2,3-triazol-4-yl]ethyl}-N-methyl-7H-pyrrolo[2,3-d]pyrimidin-4-amine] |
| 61.6 nM | 34.1 nM | CCC(c1cn(-c2ccccc2F)nn1)n1cc(-c2cncnc2OC)c2c(N)ncnc21 (centres unmarked) [Example 244, 7-{1-[1-(2-Fluorophenyl)-1H-1,2,3-triazol-4-yl]propyl}-5-[4-methoxypyrimidin-5-yl]-7H-pyrrolo[2,3-d]pyrimidin-4-amine] |

Reference: patent publication US12612409B2, “Pyrrolopyrimidines as CFTR potentiators” (Cystic Fibrosis Foundation, priority 2016, dated 2026)
